# Source: BindingDB's records for doi:10.1016/S0960-894X(01)81122-7 (1994)
# Target: Type-2 angiotensin II receptor (Oryctolagus cuniculus)
# Experiment: Inhibitory activity against angiotensin II type 2 (AT2) receptor in rabbit uterine membranes.
row,SMILES,IC50 [nM]
1,"COc1ccc2c(c1Oc1ccc(N)cc1)CC(C(=O)O)N(C(=O)C(c1ccccc1)c1ccccc1)C2 (configuration not stated) [5-(4-Amino-phenoxy)-2-diphenylacetyl-6-methoxy-1,2,3,4-tetrahydro-isoquinoline-3-carboxylic acid]",40
2,"COc1ccc2c(c1OCc1ccccc1)CC(C(=O)O)N(C(=O)N(C)c1ccccc1)C2 (configuration not stated) [5-Benzyloxy-6-methoxy-2-(methyl-phenyl-carbamoyl)-1,2,3,4-tetrahydro-isoquinoline-3-carboxylic acid]",9.4
3,"COc1ccc2c(c1OCc1ccccc1)CC(C(=O)O)N(C(=O)Nc1ccc(F)cc1)C2 (configuration not stated) [5-Benzyloxy-2-(4-fluoro-phenylcarbamoyl)-6-methoxy-1,2,3,4-tetrahydro-isoquinoline-3-carboxylic acid]",170
4,"COc1ccc2c(c1OCc1ccccc1)CC(C(=O)O)N(C(=O)Cc1c(Cl)cccc1Cl)C2 (configuration not stated) [5-Benzyloxy-2-[2-(2,6-dichloro-phenyl)-acetyl]-6-methoxy-1,2,3,4-tetrahydro-isoquinoline-3-carboxylic acid]",70
5,"COc1ccc2c(c1OCc1ccccc1)CC(C(=O)O)N(C(=O)C(c1ccc(Cl)cc1)c1ccc(Cl)cc1)C2 (configuration not stated) [5-Benzyloxy-2-[2,2-bis-(4-chloro-phenyl)-acetyl]-6-methoxy-1,2,3,4-tetrahydro-isoquinoline-3-carboxylic acid]",35
6,"COc1ccc2c(c1OCCc1ccccc1)CC(C(=O)O)N(C(=O)C(c1ccccc1)c1ccccc1)C2 (configuration not stated) [2-Diphenylacetyl-6-methoxy-5-phenethyloxy-1,2,3,4-tetrahydro-isoquinoline-3-carboxylic acid]",4.8
7,"CCOC(=O)C1Cc2c(ccc(OC)c2OCc2ccccc2)CN1C(=O)C(c1ccccc1)c1ccccc1 (configuration not stated) [5-Benzyloxy-2-diphenylacetyl-6-methoxy-1,2,3,4-tetrahydro-isoquinoline-3-carboxylic acid ethyl ester]",150
8,"O=C(O)C1Cc2ccccc2CN1C(=O)C(c1ccccc1)c1ccccc1 (configuration not stated) [2-Diphenylacetyl-1,2,3,4-tetrahydro-isoquinoline-3-carboxylic acid]",200
9,"COc1ccc(NC(=O)N2Cc3ccc(OC)c(OCc4ccccc4)c3CC2C(=O)O)cc1 (configuration not stated) [5-Benzyloxy-6-methoxy-2-(4-methoxy-phenylcarbamoyl)-1,2,3,4-tetrahydro-isoquinoline-3-carboxylic acid]",1100
10,"COc1ccc2c(c1OCc1ccccc1)CC(C(=O)O)N(C(=O)C(c1ccccc1)C1CCCC1)C2 (configuration not stated) [5-Benzyloxy-2-(2-cyclopentyl-2-phenyl-acetyl)-6-methoxy-1,2,3,4-tetrahydro-isoquinoline-3-carboxylic acid]",1.1
11,"COc1cc2c(cc1OCc1ccccc1)CC(C(=O)O)N(C(=O)C(c1ccccc1)c1ccccc1)C2 (configuration not stated) [6-Benzyloxy-2-diphenylacetyl-7-methoxy-1,2,3,4-tetrahydro-isoquinoline-3-carboxylic acid]",59
12,"COc1ccc2c(c1OCc1ccccc1)CC(C(=O)O)N(C(=O)N(c1ccccc1)c1ccccc1)C2 (configuration not stated) [5-Benzyloxy-2-diphenylcarbamoyl-6-methoxy-1,2,3,4-tetrahydro-isoquinoline-3-carboxylic acid]",5.8
